Measurements taken from patent US20230250129A1, “NEUROACTIVE STEROIDS AND COMPOSITIONS THEREOF” (Sage Therapeutics, Inc., priority 2020, published 2023).

Each compound was assayed against [35S]-TBPS binding, rat brain cortical membranes (GABAA receptor) (assay: Steroid inhibition of [35S]-TBPS binding). Conditions: 3 nM [35S]-TBPS, in the presence of 5 mM GABA, 90 min at room temp.
Experimental: Steroid Inhibition of TBPS Binding
[^35S]-t-Butylbicyclophosphorothionate (TBPS) binding assays using rat brain cortical membranes in the presence of 5 mM GABA has been described (Gee et al, J. Pharmacol. Exp. Ther. 1987, 241, 346-353; Hawkinson et al, Mol. Pharmacol. 1994, 46, 977-985; Lewin, A. H et al., Mol. Pharmacol. 1989, 35, 189-194).
Briefly, cortices are rapidly removed following decapitation of carbon dioxide-anesthetized Sprague-Dawley rats (200-250 g). The cortices are homogenized in 10 volumes of ice-cold 0.32 M sucrose using a glass/teflon homogenizer and centrifuged at 1500×g for 10 min at 4° C. The resultant supernatants are centrifuged at 10,000×g for 20 min at 4° C. to obtain the P2 pellets. The P2 pellets are resuspended in 200 mM NaCl/50 mM Na—K phosphate pH 7.4 buffer and centrifuged at 10,000×g for 10 min at 4° C. This washing procedure is repeated twice and the pellets are resuspended in 10 volumes of buffer. Aliquots ([…]) of the membrane suspensions are incubated with 3 nM [^35S]-TBPS and […] aliquots of test drug dissolved in dimethyl sulfoxide (DMSO) (final 0.5%) in the presence of 5 mM GABA. The incubation is brought to a final volume of 1.0 mL with buffer. Nonspecific binding is determined in the presence of […] and ranged from 15 to 25%. Following a 90 min incubation at room temp, the assays are terminated by filtration through glass fiber filters (Schleicher and Schuell No. 32) using a cell harvester (Brandel) and rinsed three times with ice-cold buffer. Filter bound radioactivity is measured by liquid scintillation spectrometry. Non-linear curve fitting of the overall data for each drug averaged for each concentration is done using Prism (GraphPad). […] The concentration of test compound producing 50% inhibition (IC50) of specific binding and the maximal extent of inhibition (Imax) are determined for the individual experiments with the same model used for the overall data and then the means±SEM.s of the individual experiments are calculated.
Various compounds are or can be screened to determine their potential as modulators of [^35S]-TBPS binding in vitro. These assays are or can be performed in accordance with the above

SMILES | IC50 [nM]
CCC[C@@]1(O)CC[C@H]2[C@H](CC[C@@H]3[C@@H]2CC[C@]2(C)[C@@H](C(=O)Nc4cncc(C#N)n4)CC[C@@H]32)C1 [Compound 83, (3R,5R,8R,9R,10S,13S,14S,17S)—N-(6-cyanopyrazin-2-yl)-3-hydroxy-13-methyl-3-propylhexadecahydro-1H-cyclopenta[a]phenanthrene-17-carboxamide] | < 100
C[C@H]1C[C@H]2[C@H](CC[C@@H]3[C@@H]2CC[C@]2(C)[C@@H](C(=O)Nc4ccc(C#N)nc4)CC[C@@H]32)C[C@]1(C)O [Compound 85, (2S,3S,5R,8R,9R,10S,13S,14S,17S)—N-(6-cyanopyridin-3-yl)-3-hydroxy-2,3,13-trimethylhexadecahydro-1H-cyclopenta[a]phenanthrene-17-carboxamide] | < 100
CCOC[C@@]1(O)CC[C@@]2(CC)[C@H](CC[C@H]3[C@@H]4CCC[C@H](C(=O)Nc5cc(C)n(C)n5)[C@@]4(C)CC[C@@H]32)C1 [Compound 100, (4aS,4bS,6aR,8R,10aS,10bS,12aS)—N-(1,5-dimethyl-1H-pyrazol-3-yl)-8-(ethoxymethyl)-0a-ethyl-8-hydroxy-12a-methyloctadecahydrochrysene-1-carboxamide] | < 100
COC[C@@]1(O)CC[C@H]2[C@H](CC[C@@H]3[C@@H]2CC[C@]2(C)[C@@H](C(=O)Nc4cnc(C#N)cn4)CC[C@@H]32)C1 [Compound 73, (3R,5R,8R,9R,10S,13S,14S,17S)—N-(5-cyanopyrazin-2-yl)-3-hydroxy-3-(methoxymethyl)-13-methylhexadecahydro-1H-cyclopenta[a]phenanthrene-17-carboxamide] | < 100
COC[C@@]1(O)CC[C@H]2[C@H](CC[C@@H]3[C@@H]2CC[C@]2(C)[C@@H](C(=O)Nc4cnc(C#N)nc4)CC[C@@H]32)C1 [Compound 89, (3R,5R,8R,9R,10S,13S,14S,17S)—N-(2-cyanopyrimidin-5-yl)-3-hydroxy-3-(methoxymethyl)-13-methylhexadecahydro-1H-cyclopenta[a]phenanthrene-17-carboxamide] | < 100
CCC[C@@]1(O)CC[C@H]2[C@H](CC[C@@H]3[C@@H]2CC[C@]2(C)[C@@H](C(=O)Nc4cnc(C#N)nc4)CC[C@@H]32)C1 [Compound 86, (3R,5R,8R,9R,10S,13S,14S,17S)—N-(2-cyanopyrimidin-5-yl)-3-hydroxy-13-methyl-3-propylhexadecahydro-1H-cyclopenta[a]phenanthrene-17-carboxamide] | 100 to 1000
CCOC[C@@]1(O)CC[C@H]2[C@H](CC[C@@H]3[C@@H]2CC[C@]2(C)[C@@H](C(=O)Nc4cc(C#N)ncn4)CC[C@@H]32)C1 [Compound 77, (3R,5R,8R,9R,10S,13S,14S,17S)—N-(6-cyanopyrimidin-4-yl)-3-(ethoxymethyl)-3-hydroxy-13-methylhexadecahydro-1H-cyclopenta[a]phenanthrene-17-carboxamide] | < 100
COC[C@@]1(O)CC[C@H]2[C@H](CC[C@@H]3[C@@H]2CC[C@]2(C)[C@@H](C(=O)Nc4nccc(C#N)n4)CC[C@@H]32)C1 [Compound 92, (3R,5R,8R,9R,10S,13S,14S,17S)—N-(4-cyanopyrimidin-2-yl)-3-hydroxy-3-(methoxymethyl)-13-methylhexadecahydro-1H-cyclopenta[a]phenanthrene-17-carboxamide] | 100 to 1000
CCOC[C@@]1(O)CC[C@H]2[C@H](CC[C@@H]3[C@@H]2CC[C@]2(C)[C@@H](C(=O)Nc4ccnc(C#N)n4)CC[C@@H]32)C1 [Compound 78, (3R,5R,8R,9R,10S,13S,14S,17S)—N-(2-cyanopyrimidin-4-yl)-3-(ethoxymethyl)-3-hydroxy-13-methylhexadecahydro-1H-cyclopenta[a]phenanthrene-17-carboxamide] | < 100
CCOC[C@@]1(O)CC[C@@]2(CC)[C@H](CC[C@H]3[C@@H]4CCC[C@H](C(=O)Nc5cc(C)nn5C)[C@@]4(C)CC[C@@H]32)C1 [Compound 101, (1S,4aS,4bS,6aR,8R,10aS,10bS,12aS)—N-(1,3-dimethyl-1H-pyrazol-5-yl)-8-(ethoxymethyl)-10a-ethyl-8-hydroxy-12a-methyloctadecahydrochrysene-1-carboxamide] | < 100
